Measured values as given in the NIST ThermoML archive (doi:10.1021/je800251v).

Details: Liquid

CCOC(=O)CC [ethyl propanoate]
Details | mass density [kg/m3]
298.15 K, 100 kPa | 884.3
298.15 K, 1000 kPa | 884.8
298.15 K, 2000 kPa | 885.7
298.15 K, 3000 kPa | 886.6
298.15 K, 3340 kPa | 886.9
298.15 K, 5000 kPa | 888.7
298.15 K, 10000 kPa | 892.9
298.15 K, 15000 kPa | 896.9
298.15 K, 20000 kPa | 900.7
298.15 K, 25000 kPa | 904.4
298.15 K, 30000 kPa | 908.9
298.15 K, 35000 kPa | 913.6
303.15 K, 100 kPa | 878.5
303.15 K, 1000 kPa | 879
303.15 K, 2000 kPa | 880
303.15 K, 3000 kPa | 880.9
303.15 K, 3340 kPa | 881.2
303.15 K, 5000 kPa | 883
303.15 K, 10000 kPa | 887.4
303.15 K, 15000 kPa | 891.6
303.15 K, 20000 kPa | 895.6
303.15 K, 25000 kPa | 899.4
303.15 K, 30000 kPa | 904
303.15 K, 35000 kPa | 908.9
308.15 K, 100 kPa | 872.7
308.15 K, 1000 kPa | 873.2
308.15 K, 2000 kPa | 874.2
308.15 K, 3000 kPa | 875.2
308.15 K, 3340 kPa | 875.5
308.15 K, 5000 kPa | 877.4
308.15 K, 10000 kPa | 882
308.15 K, 15000 kPa | 886.3
308.15 K, 20000 kPa | 890.4
308.15 K, 25000 kPa | 894.3
308.15 K, 30000 kPa | 899.2
308.15 K, 35000 kPa | 904.2
313.15 K, 100 kPa | 866.8
313.15 K, 1000 kPa | 867.4
313.15 K, 2000 kPa | 868.4
313.15 K, 3000 kPa | 869.4
313.15 K, 3340 kPa | 869.8
313.15 K, 5000 kPa | 871.7
313.15 K, 10000 kPa | 876.5
313.15 K, 15000 kPa | 880.9
313.15 K, 20000 kPa | 885.1
313.15 K, 25000 kPa | 889.3
313.15 K, 30000 kPa | 894.4
313.15 K, 35000 kPa | 899.5
318.15 K, 100 kPa | 860.9
318.15 K, 1000 kPa | 861.5
318.15 K, 2000 kPa | 862.6
318.15 K, 3000 kPa | 863.7
318.15 K, 3340 kPa | 864.1
318.15 K, 5000 kPa | 866.1
318.15 K, 10000 kPa | 871
318.15 K, 15000 kPa | 875.6
318.15 K, 20000 kPa | 880
318.15 K, 25000 kPa | 884.1
318.15 K, 30000 kPa | 889.1
318.15 K, 35000 kPa | 894.3
323.15 K, 100 kPa | 854.9
323.15 K, 1000 kPa | 856
323.15 K, 2000 kPa | 857.1
323.15 K, 3000 kPa | 858.1
323.15 K, 3340 kPa | 858.4
323.15 K, 5000 kPa | 860.3
323.15 K, 10000 kPa | 865.4
323.15 K, 15000 kPa | 870.2
323.15 K, 20000 kPa | 874.7
323.15 K, 25000 kPa | 879.1
323.15 K, 30000 kPa | 884.3
323.15 K, 35000 kPa | 889.7
328.15 K, 100 kPa | 849.2
328.15 K, 1000 kPa | 850.2
328.15 K, 2000 kPa | 851.3
328.15 K, 3000 kPa | 852.5
328.15 K, 3340 kPa | 852.9
328.15 K, 5000 kPa | 854.7
328.15 K, 10000 kPa | 860
328.15 K, 15000 kPa | 865
328.15 K, 20000 kPa | 869.6
328.15 K, 25000 kPa | 874
328.15 K, 30000 kPa | 879.4
328.15 K, 35000 kPa | 884.9
333.15 K, 100 kPa | 843.1
333.15 K, 1000 kPa | 844.2
333.15 K, 2000 kPa | 845.4
333.15 K, 3000 kPa | 846.6
333.15 K, 3340 kPa | 847
333.15 K, 5000 kPa | 849
333.15 K, 10000 kPa | 854.6
333.15 K, 15000 kPa | 859.7
333.15 K, 20000 kPa | 864.5
333.15 K, 25000 kPa | 869.2
333.15 K, 30000 kPa | 874.8
333.15 K, 35000 kPa | 880.6
338.15 K, 100 kPa | 836.9
338.15 K, 1000 kPa | 838.2
338.15 K, 2000 kPa | 839.5
338.15 K, 3000 kPa | 840.7
338.15 K, 3340 kPa | 841.1
338.15 K, 5000 kPa | 843.1
338.15 K, 10000 kPa | 848.8
338.15 K, 15000 kPa | 854.4
338.15 K, 20000 kPa | 859.4
338.15 K, 25000 kPa | 863.6
338.15 K, 30000 kPa | 869.9
338.15 K, 35000 kPa | 875.8
343.15 K, 100 kPa | 831.1
343.15 K, 1000 kPa | 832.2
343.15 K, 2000 kPa | 833.5
343.15 K, 3000 kPa | 834.8
343.15 K, 3340 kPa | 835.2
343.15 K, 5000 kPa | 837.4
343.15 K, 10000 kPa | 843.4
343.15 K, 15000 kPa | 848.9
343.15 K, 20000 kPa | 854
343.15 K, 25000 kPa | 859.1
343.15 K, 30000 kPa | 865
343.15 K, 35000 kPa | 871
348.15 K, 100 kPa | 824.9
348.15 K, 1000 kPa | 826
348.15 K, 2000 kPa | 827.4
348.15 K, 3000 kPa | 828.8
348.15 K, 3340 kPa | 829.3
348.15 K, 5000 kPa | 831.5
348.15 K, 10000 kPa | 837.7
348.15 K, 15000 kPa | 843.4
348.15 K, 20000 kPa | 848.8
348.15 K, 25000 kPa | 854
348.15 K, 30000 kPa | 860.1
348.15 K, 35000 kPa | 866.3
353.15 K, 100 kPa | 818.7
353.15 K, 1000 kPa | 819.9
353.15 K, 2000 kPa | 821.3
353.15 K, 3000 kPa | 822.7
353.15 K, 3340 kPa | 823.2
353.15 K, 5000 kPa | 825.6
353.15 K, 10000 kPa | 832.1
353.15 K, 15000 kPa | 838
353.15 K, 20000 kPa | 843.5
353.15 K, 25000 kPa | 848.9
353.15 K, 30000 kPa | 855.3
353.15 K, 35000 kPa | 861.6
363.15 K, 100 kPa | 803.5
363.15 K, 1000 kPa | 805.1
363.15 K, 2000 kPa | 806.9
363.15 K, 3000 kPa | 808.7
363.15 K, 3340 kPa | 809.3
363.15 K, 5000 kPa | 812
363.15 K, 10000 kPa | 819.6
363.15 K, 15000 kPa | 826.5
363.15 K, 20000 kPa | 833
363.15 K, 25000 kPa | 839.1
363.15 K, 30000 kPa | 844.8
363.15 K, 35000 kPa | 850.2
373.15 K, 100 kPa | 790.9
373.15 K, 1000 kPa | 792.6
373.15 K, 2000 kPa | 794.5
373.15 K, 3000 kPa | 796.4
373.15 K, 3340 kPa | 797.1
373.15 K, 5000 kPa | 800
373.15 K, 10000 kPa | 808.2
373.15 K, 15000 kPa | 815.6
373.15 K, 20000 kPa | 822.5
373.15 K, 25000 kPa | 829
373.15 K, 30000 kPa | 834.9
373.15 K, 35000 kPa | 840.6
383.15 K, 1000 kPa | 780
383.15 K, 2000 kPa | 782.1
383.15 K, 3000 kPa | 784.1
383.15 K, 3340 kPa | 784.8
383.15 K, 5000 kPa | 787.9
383.15 K, 10000 kPa | 796.6
383.15 K, 15000 kPa | 804.6
383.15 K, 20000 kPa | 811.9
383.15 K, 25000 kPa | 818.7
383.15 K, 30000 kPa | 825
383.15 K, 35000 kPa | 830.9
393.15 K, 1000 kPa | 766.4
393.15 K, 2000 kPa | 768.7
393.15 K, 3000 kPa | 770.8
393.15 K, 3340 kPa | 771.5
393.15 K, 5000 kPa | 775
393.15 K, 10000 kPa | 784.5
393.15 K, 15000 kPa | 793.1
393.15 K, 20000 kPa | 800.8
393.15 K, 25000 kPa | 808
393.15 K, 30000 kPa | 814.7
393.15 K, 35000 kPa | 820.9
